Assay results taken from US9163007B2, “5-substituted indazoles as kinase inhibitors” (AbbVie Inc., priority 2007, dated 2015).
Several values for one entry are separate records, joined by “and”; a condition that tells them apart may be missing. Identical values can stand only once.

Tests used:
rats [1] = assay: Spinal nerve (L5/L6) ligation model of neuropathic pain (Chung); format: in vivo, rat; conditions: i.p. or p.o., doses ranging from 1-150 mg/kg
Description: Spinal Nerve (L5/L6) Ligation Model of Neuropathic Pain.
As previously described in detail by Kim and Chung (Kim S. H.; Chung J. M. An experimental model for peripheral neuropathy produced by segmental spinal nerve ligation in the rat. Pain 1992, 50, 355-363), a 1.5 cm incision was made dorsal to the lumbosacral plexus. In anesthetized rats, the paraspinal muscles (left side) were separated from the spinous processes, the L5 and L6 spinal nerves isolated, and tightly ligated with 3-0 silk threads. Following hemostasis, the wound was sutured and coated with antibiotic ointment. The rats were allowed to recover and then placed in a cage with soft bedding for 14 days before behavioral testing for mechanical allodynia.

rats [2] = assay: Sciatic nerve ligation model of neuropathic pain (Bennett); format: in vivo, rat; conditions: i.p. or p.o., doses ranging from 1-150 mg/kg
Description: Sciatic Nerve Ligation Model of Neuropathic Pain.
As previously described in detail by Bennett and Xie (Bennett G. J.; Xie Y-K. A peripheral mononeuropathy in rat that produces disorders of pain sensation like those seen in man. Pain 1988, 33, 87-107), in anesthetized rats, a 1.5 cm incision was made 0.5 cm below the pelvis and the biceps femoris and the gluteous superficialis (right side) were separated. The sciatic nerve was exposed, isolated, and four loose ligatures (5-0 chromic catgut) with 1 mm spacing were placed around it. The rats were allowed to recover and then placed in a cage with soft bedding for 14 days before behavioral testing for mechanical allodynia as described above. In addition, animals were also tested for cold allodynia by dipping their hind paw in a cold-water bath (4.5° C.) and determining the paw withdrawal latency.

Balb/c mice = assay: Murine model of acute asthma: airway hyperresponsiveness (lung resistance); format: in vivo, mouse; conditions: OVA-challenged mice
Description: Murine Asthma Model of Acute Asthma
Female Balb/c mice were purchased from Taconic and housed at Abbott Bioresearch Center. Animals were utilized at 8-12 weeks of age. All protocols were approved by the Institutional Animal Care and Use Committee (IACUC). Dexamethasone (Dex), and ovalbumin (OVA) were purchased from Sigma. Endotoxin was removed from ovalbumin using DetoxiGel (Pierce) according to manufacturer's protocol and the final material contained less than 0.1 EU/mg protein. Alum Imject was purchased from Pierce.
Animals were sensitized to OVA on day 0 and 7 with an i.p. injection of 8 μg OVA in 2 mg alum. On days 14 and 16, animals received intra-nasal challenge of 0.3 μg OVA in 50 μl sterile PBS. […] All endpoints were analyzed on day 17, 24 hours after the second OVA challenge. AHR was assessed using unconscious restrained whole body plethysmography. […] Pressure in the lung and flow within the plethysmograph were measured using transducers, and lung resistance was calculated as pressure/flow using Biosystem Xa software. Baseline resistance as well as resistance following challenge with methacholine (3, 10 or 30 mg/mL) that was delivered with an inline ultrasonic-nebulizer were measured. […] Lavage fluid was analyzed for IL-13, AMCase, Muc5ac and cellular infiltrates. […]

IL-13 = assay: Murine asthma model: IL-13 measurement in bronchoalveolar lavage fluid; format: in vivo, mouse
Protocol: (§1) Animals were sensitized to OVA on day 0 and 7 with an i.p. injection of 8 μg OVA in 2 mg alum. On days 14 and 16, animals received intra-nasal challenge of 0.3 μg OVA in 50 μl sterile PBS. Animals were dosed i.p. with a representative compound of formula (I), Example 179, (dissolved with 0.5% HMPC, 0.02% Tween 80 in water) twice per day at doses of 3, 10, and 30 mg/kg/dose beginning the afternoon of day 13. The final dose of compound was administered 30 minutes prior to measurement of airway hyperresponsiveness (AHR). Dexamethasone was administered orally once a day on days 13-17 at a dose of 3 mg/kg. All endpoints were analyzed on day 17, 24 hours after the second OVA challenge. AHR was assessed using unconscious restrained whole body plethysmography. Briefly, a surgical plane of anesthesia was induced with an i.p. injection of ketamine and xylazine. A tracheal canula was surgically inserted between the third and fourth tracheal rings. Spontaneous breathing was prevented by an intravenous (i.v.) jugular vein injection of pancuronium bromide. Animals were placed in a whole body plethysmograph (Buxco) and mechanically ventilated with 0.2 mL room air at 150 breaths per minute with a volume-controlled ventilator (Harvard Apparatus). Pressure in the lung and flow within the plethysmograph were measured using transducers, and lung resistance was calculated as pressure/flow using Biosystem Xa software. Baseline resistance as well as resistance following challenge with methacholine (3, 10 or 30 mg/mL) that was delivered with an inline ultrasonic-nebulizer were measured. Upon completion of pulmonary function testing, the lungs were lavaged 4 times with 0.5 mL sterile PBS. Lavage fluid was analyzed for IL-13, AMCase, Muc5ac and cellular infiltrates. The efficacy of the test compound was tested at doses of 3, 10 and 30 mg/kg b.i.d. (6, 20, 60 mg/kg/day). […]
IL-13 concentrations in the bronchoalveolar lavage fluid (BAL) were measured by ELISA (R & D Systems) according to manufacturer's instructions.

[3] = tested on: Acidic mammalian chitinase (AMCase); assay: Murine asthma model: AMCase measurement in BAL fluid; format: in vivo, mouse; conditions: 30 mg/kg group, p<0.01
Protocol: as §1, with “Spontaneous breathing was prevented by an intravenous (i.v.) jugular vein injection of pancuronium bromide. Animals were placed in a whole body plethysmograph (Buxco) and mechanically ventilated with 0.2 mL room air at 150 breaths per minute with a volume-controlled ventilator (Harvard Apparatus).” left out, “Upon completion of pulmonary function testing, the lungs were lavaged 4 times with 0.5 mL sterile PBS.” left out, “infiltrates.” for “infiltrates. The efficacy of the test compound was tested at doses of 3, 10 and 30 mg/kg b.i.d. (6, 20, 60 mg/kg/day).”

MUC5AC = assay: Murine asthma model: MUC5AC measurement in BAL; format: in vivo, mouse; parameters: dose or concentration left out as unconfirmed
Protocol: Animals were sensitized to OVA on day 0 and 7 with an i.p. injection of 8 μg OVA in 2 mg alum. On days 14 and 16, animals received intra-nasal challenge of 0.3 μg OVA in 50 μl sterile PBS. […] The final dose of compound was administered 30 minutes prior to measurement of airway hyperresponsiveness (AHR). Dexamethasone was administered orally once a day on days 13-17 at a dose of 3 mg/kg. All endpoints were analyzed on day 17, 24 hours after the second OVA challenge. AHR was assessed using unconscious restrained whole body plethysmography. Briefly, a surgical plane of anesthesia was induced with an i.p. injection of ketamine and xylazine. A tracheal canula was surgically inserted between the third and fourth tracheal rings. […] Pressure in the lung and flow within the plethysmograph were measured using transducers, and lung resistance was calculated as pressure/flow using Biosystem Xa software. Baseline resistance as well as resistance following challenge with methacholine (3, 10 or 30 mg/mL) that was delivered with an inline ultrasonic-nebulizer were measured. […] Lavage fluid was analyzed for IL-13, AMCase, Muc5ac and cellular infiltrates. […]
Concentrations of the mucin gene MUC5AC were quantitated by ELISA format. […] The reaction was stopped using 1M H2SO4 and then read in a spectrophotometer at OD 450 nm.

Cdc7/Dbf4 = Cdc7/Dbf4 (Homo sapiens (Human), UniProt O00311); assay: Cdc7 Inhibition Assay; format: biochemical; conditions: 11 data point; read-out: Ki (μM) 11 data point;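 also: reaction mixtures incubated 30 min on streptavidin-coated plates, then quantified by scintillation counting, with inhibition curves fitted by non-linear regression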
Protocol: The reactions were incubated for 30 minutes on streptavidin-coated plates, washed, and quantified using a TopCount scintillation plate reader (Packard). IC50 values are determined via non-linear regression fitting of the data.

[4] = tested on: phospho-MCM2 Ser53 in HCT-116 cells; assay: Phospho-MCM2 ELISA; format: cell-based; conditions: Homo sapiens, treated 6 hours
Protocol: HCT-116 cells (20,000/well; 96-well format) were treated for 6 hours with increasing concentrations of compounds (0.01-10 μM in half-log increments). After removing the medium/inhibitor, the cells were frozen for 5 minutes and treated on ice with 20 μL of lysis buffer (Invitrogen #FNN0011) for 30 minutes. 80 μL of cold 2% BSA (in PBS) were then added to each well before transferring 80 μL to MCM2 antibody-coated plates (Bethyl #A300-122A, lot A300-122A-1). The plates were incubated overnight at 4° C., washed, and then incubated with the sandwich antibody (1:100 rabbit anti-human phospho-MCM2 Ser53; Bethyl #A300-756A, lot A300-756A-2) for 2 hours at room temperature. After another series of washes the samples are incubated for 1 hour with detection antibody (XSA-grade goat anti-rabbit-HRP, KPL #074-15-061, lot 50884, diluted to 2 μg/mL in 2% BSA). Plates were washed, developed using luminescence substrate (SuperSignal Pico for ELISA, Pierce #37069, Lot. HB101408), and read on a Molecular Devices M5 luminometer.

HCT-116 cells = assay: AlamarBlue Cell Viability Assays; format: cell-based; conditions: Homo sapiens, treated 72 hours
Protocol: AlamarBlue Cell Viability Assays
HCT-116 cells (3,000/well; 96-well format) were treated for 72 hours with increasing concentrations of compounds (0.01-30 μM in half-log increments). The cells were then incubated in fresh media with 10% AlamarBlue reagent (Invitrogen #DAL1100). AlamarBlue reactions were incubated according to the manufacturer's instructions (approximately 4 hours) and then analyzed using an fmax fluorescence microplate reader (Molecular Devices) using excitation/emission wavelengths of 544/595 nm. Data were analyzed using SOFTmax PRO software provided by the manufacturer.

Sequence of Cdc7/Dbf4 (O00311 whole entry): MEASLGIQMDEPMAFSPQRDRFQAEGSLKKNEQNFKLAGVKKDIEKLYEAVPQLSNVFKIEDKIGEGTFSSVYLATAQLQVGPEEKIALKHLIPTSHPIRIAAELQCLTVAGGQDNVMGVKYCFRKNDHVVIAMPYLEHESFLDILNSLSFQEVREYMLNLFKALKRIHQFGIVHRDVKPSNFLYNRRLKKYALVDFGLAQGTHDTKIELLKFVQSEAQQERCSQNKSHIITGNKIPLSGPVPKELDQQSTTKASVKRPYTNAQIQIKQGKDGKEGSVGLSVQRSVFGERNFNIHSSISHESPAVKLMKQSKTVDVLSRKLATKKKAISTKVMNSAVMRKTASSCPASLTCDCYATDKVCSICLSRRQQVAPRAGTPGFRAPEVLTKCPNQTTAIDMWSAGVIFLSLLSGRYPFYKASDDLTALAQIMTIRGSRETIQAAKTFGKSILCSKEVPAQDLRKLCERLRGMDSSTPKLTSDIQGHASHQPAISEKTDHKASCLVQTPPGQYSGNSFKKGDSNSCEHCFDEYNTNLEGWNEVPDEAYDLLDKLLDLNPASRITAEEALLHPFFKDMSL
Sequence of Cdc7/Dbf4 (Q9UBU7 whole entry partner): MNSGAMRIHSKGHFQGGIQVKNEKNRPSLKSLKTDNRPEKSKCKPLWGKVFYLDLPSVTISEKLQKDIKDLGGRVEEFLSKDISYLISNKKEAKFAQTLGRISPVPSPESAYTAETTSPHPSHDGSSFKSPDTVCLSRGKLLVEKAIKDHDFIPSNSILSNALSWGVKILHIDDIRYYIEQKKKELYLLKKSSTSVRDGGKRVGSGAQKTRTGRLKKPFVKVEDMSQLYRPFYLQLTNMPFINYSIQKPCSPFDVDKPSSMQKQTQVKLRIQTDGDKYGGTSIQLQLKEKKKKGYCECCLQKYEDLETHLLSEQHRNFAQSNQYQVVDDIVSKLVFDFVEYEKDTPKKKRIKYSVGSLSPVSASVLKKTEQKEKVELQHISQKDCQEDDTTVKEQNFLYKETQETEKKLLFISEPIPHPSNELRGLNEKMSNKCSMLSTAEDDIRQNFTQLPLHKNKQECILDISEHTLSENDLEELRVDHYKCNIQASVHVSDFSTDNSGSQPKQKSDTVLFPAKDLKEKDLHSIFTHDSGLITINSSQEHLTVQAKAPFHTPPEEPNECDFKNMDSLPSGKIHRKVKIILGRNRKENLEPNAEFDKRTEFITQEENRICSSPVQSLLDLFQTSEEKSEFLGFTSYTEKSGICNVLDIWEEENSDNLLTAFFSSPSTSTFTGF

## O=C(N[C@H](CO)c1ccccc1)c1cc(-c2ccc3[nH]ncc3c2)on1 [Example 160, N-[(1S)-2-hydroxy-1-phenylethyl]-5-(1H-indazol-5-yl)isoxazole-3-carboxamide]
Rats [1]
  inhibition of tactile allodynia: greater than 30%
Rats [2]
  inhibition of tactile allodynia: greater than 30%

## O=C(N[C@H](CCO)c1ccccc1)c1cc(-c2ccc3[nH]ncc3c2)on1 [Example 179, N-[(1R)-3-hydroxy-1-phenylpropyl]-5-(1H-indazol-5-yl)isoxazole-3-carboxamide]
Balb/c mice; i.p. twice per day, tested 3, 10, 30 mg/kg, printed 'doses ranging between 1 and 100 mg/kg', OVA 6.90, PBS 4.65
  methacholine-induced airways resistance: 4.55 cm H2O/mL/sec and 4.77 cm H2O/mL/sec
IL-13; 3 mg/kg dose group
  inhibition of IL-13 induction in BAL fluid: no significant inhibition
IL-13; 10 mg/kg dose group
  inhibition of IL-13 induction in BAL fluid: no significant inhibition
IL-13; 30 mg/kg dose, p<0.05
  inhibition of IL-13 induction in BAL fluid: 60%
[3]
  inhibition of AMCase activity induction in BAL fluid: 45%
MUC5AC
  reduction of MUC5AC levels: 35%
Rats [1]
  inhibition of tactile allodynia: greater than 30%
Rats [2]
  inhibition of tactile allodynia: greater than 30%

## Nc1n[nH]c2ccc(-c3nnn(Cc4ccccc4)c3Cc3ccccc3)cc12 [Example 405, 5-(1,5-dibenzyl-1H-1,2,3-triazol-4-yl)-1H-indazol-3-amine]
Cdc7/Dbf4
  Ki: 0.0011 µM
[4]
  EC50: 3100 nM
HCT-116 cells
  EC50: 6620 nM

## Nc1n[nH]c2ccc(-c3nnn(Cc4ccccc4)c3-c3cccs3)cc12 [Example 406, 5-(1-benzyl-5-thien-2-yl-1H-1,2,3-triazol-4-yl)-1H-indazol-3-amine]
Cdc7/Dbf4
  Ki: 0.0005 µM
[4]
  EC50: 671 nM
HCT-116 cells
  EC50: 1500 nM

## Nc1n[nH]c2ccc(-c3nnn(Cc4ccccc4)c3CC3CCCC3)cc12 [Example 409, 5-[1-benzyl-5-(cyclopentylmethyl)-1H-1,2,3-triazol-4-yl]-1H-indazol-3-amine]
Cdc7/Dbf4
  Ki: 0.02 µM
[4]
  EC50: > 10000 nM
HCT-116 cells
  EC50: 13500 nM

## C[C@@H]1C[C@H]2[C@@H]3CCC4=CC(=O)C=C[C@]4(C)[C@@]3(F)[C@@H](O)C[C@]2(C)[C@@]1(O)C(=O)CO [dexamethasone, Dexamethasone, reference compound]
Balb/c mice; 3 mg/kg orally once a day
  methacholine-induced airways resistance: 4.76 cm H2O/mL/sec
